{"source": "patent US9226914B2", "about": "“Methods for promoting neuronal development and/or health” (Mead Johnson Nutrition Company, priority 2013, dated 2016)", "key": {"[1]": {"test_system": "frontal cortex neuronal networks (cortical network activity in vitro)", "test": "Acute effects on cortical neuronal network activity on MEA neurochips (spike train analysis)", "format": "cell-based, mice", "description": "The experiments were performed according to the SOPs, “SOP Preparation Frontal Cortex Mouse—Serum (Rev. 07 2012 Mar. 6 eng)”, “SOP Solutions for Neuronal Cell Culture (Rev. 04 2009 Nov. 18 eng)”, “SOP Cleaning and Substrate Preparations of MEAs (Rev. 03 2009 Apr. 26 eng)”, “SOP Feeding neuronal cell culture”, “SOP Cell culture preparation MEAs”, “SOP Plexon Recording” and “SOP Plexon Data Analysis”.\nThe microelectrode array neurochips (“MEA neurochips”) were provided by the Center for Network Neuroscience (CNNS) at the University of North Texas. These 5×5 cm^2 glass chips have a dual recording matrix with 32 passive electrodes per matrix and indium tin oxide conductors. The hydrophobic insulation material surface was activated by a brief butane flame pulse through a stainless steel mask. Thus, cell attachment on a confined region, a 5 mm diameter centered on the electrode array, is ensured. The activated face regions were coated with 25 μg/mL poly-D-lysine (30-70 kD) and incubated […] in 16 μg/mL laminin for 3 hours right before the preparation.\nFrontal cortex tissue was harvested from embryonic day 15 chr:NMRI mice. Mice were sacrificed by cervical dislocation according to the German Animal Protection Act Section 4. Cultures on MEAs were incubated at 37 deg. C. in a 10% CO2 atmosphere until ready for use, which usually is four weeks to three months after seeding. Culture media were replenished two times a week with DMEM containing 10% heat inactivated horse serum. The developing co-cultures were treated with the mitosis inhibitor 5-fluoro-2′-deoxyuridine (25 μMolar) and uridine (63 μMolar) for 48 hours on day 5 after seeding to prevent further glial proliferation.\nAfter establishing a stable activity pattern after 4 weeks, the neuronal networks on MEA chips were employed for substance testing. For this example, cultures between 25 and 38 days in vitro were used. For extracellular recording, MEA neurochips were placed into sterilized constant-bath recording chambers and maintained at 37 deg. C. Recordings were made in DMEM including 10% heat inactivated horse serum. The pH was maintained at 7.4 with a continuous stream of filtered, humidified airflow with 10% CO2. Sets of preamplifiers were positioned to either side of the recording chamber. Recording was performed with the multichannel acquisition processor system, a computer-controlled 64-channel amplifier system (Plexon, Inc., Dallas, Tex., USA) providing programmable amplification, filtering, switching, and digital signal processing of microelectrode signals. The total system gain used was 10K with a simultaneous 40 kHz sampling rate. The signals routinely recorded by these neurochips are located in a range of 15-1800 microV.\nThe multichannel signal acquisition system delivered single neuron spike data. Spike identification and separation were accomplished with a template-matching algorithm in real time. This allows for the extracellular recording from action potentials from a maximum of 256 neurons simultaneously.\nThe action potentials, or spikes, were recorded in spike trains and are clustered in so-called bursts. Bursts were quantitatively described via direct spike train analysis using the program NeuroEXplorer (Plexon Inc., Dallas, Tex., USA) and in house programs. Bursts were defined by the beginning and the end of short spike invents. Maximum spike intervals defining the start of a burst were 40 ms and maximum intervals to end a burst from 200 ms.\n(§1) All compounds were recorded with a fixed DMSO concentration of 0.1% throughout the experiments. Due to the fact that alpha-lipoic acid was investigated at concentrations between 100 μM and 5 mM, the solvent concentration reached 0.7%.\nThe high content analysis of the network activity patterns provides a multiparametric description characterized in four activity categories: general activity, burst structure, synchronicity and oscillatory behavior. […]"}, "[2]": {"test": "Precipitation on dilution of stock into experiment bath solution", "format": "physicochemical", "conditions": "1 M stock in 100% DMSO; bath 1, 3 and 5 mM", "description": "as §1, with “0.7%. […] Working solutions of all compounds were freshly prepared for each experiment day and between 0.9 and 10 μL were applied to a 1 mL experiment bath solution.” for “0.7%.”"}, "[3]": {"test_system": "neuronal activity (spike rate and burst rate)", "test": "Chronic effects of hBDNF on neuronal activity development in the MEA system", "format": "cell-based", "conditions": "20 ng/ml, FIG. 15", "description": "For neurotrophic factors such as hBDNF, NeuroProof tested the chronic effects in the MEA system (See FIG. 15)."}}}
{"compound": "O=C(O)CCCCC1CCSS1", "note": "(stereo not drawn) [ALA, alpha-lipoic acid]", "values": [{"measurement": "activity reached (spike rate fit)", "setting": "[1]; 100 μM alpha-lipoic acid, FIG. 6", "value": "91.5 % of control (0.1% DMSO) activity"}, {"measurement": "activity reached (spike rate fit)", "setting": "[1]; 1 mM alpha-lipoic acid, FIG. 6", "value": "83.6 % of control (0.1% DMSO) activity"}, {"measurement": "activity reached (spike rate fit)", "setting": "[1]; 5 mM alpha-lipoic acid, FIG. 6", "value": "43.9 % of control (0.1% DMSO) activity"}, {"measurement": "concentration at which general activity is affected (spike rate fit)", "setting": "[1]; FIG. 6", "value": "above 100 μM"}, {"measurement": "EC50", "setting": "[1]; Mus musculus, concentration of ALA, FIGS. 9 and 10, read-out: EC50 for the decline of activity", "value": 5.03, "unit": "mM"}, {"measurement": "Hill coefficient (nH) of the decline of activity", "setting": "[1]; concentrations above 100 μM ALA, higher value = steeper slope", "value": 1.66}, {"measurement": "concentration at which general activity is reduced", "setting": "[1]; experimental concentrations", "value": "≥ 1", "unit": "mM"}, {"measurement": "precipitation during dilution", "setting": "[2]", "value": "precipitation of alpha-lipoic acid occurred at the three highest concentrations"}]}
{"compound": "CC/C=C\\C/C=C\\C/C=C\\C/C=C\\C/C=C\\C/C=C\\CCC(=O)O", "note": "[DHA, docosahexaenoic acid]", "values": [{"measurement": "activity (spike rate fit), activity decline reached", "setting": "[1]; 100 μM DHA, highest tested concentration, FIG. 5", "value": "63.6 % of native activity"}, {"measurement": "concentration at which spike rates and burst rates are reduced", "setting": "[1]; increasing effects at higher concentrations", "value": "≥ 100", "unit": "pM"}]}
{"compound": "hBDNF: Human recombinant brain derived neurotrophic factor, PeproTech #450-02", "values": [{"measurement": "acceleration of neuronal activity development", "setting": "[3]; chronic", "value": "approximately one week"}, {"measurement": "general activity (spike rate, burst rate), chronic treatment", "setting": "[3]; versus vehicle", "value": "increases the general activity at every recorded time point"}, {"measurement": "effect on general activity", "setting": "[1]; above 500 pg/mL, tested 10 pg/mL to 50 μg/mL", "value": "only shows slight effects on the general activity which is numerically increased"}, {"measurement": "EC50 on spike rate", "setting": "[1]; acute application", "value": 5.28, "unit": "ng/mL"}]}
